Laboratory results: ChEMBL document CHEMBL3991601, “The target landscape of clinical kinase drugs” (Science, 2017)
The source made the active and inactive calls. Rule as the data show it, for most assays here: actives have a measured Kd and inactives only a lower limit.

Tests used:
[1] = molecular target: Mitogen-activated protein kinase 8 (Homo sapiens, UniProt P45983)
Actin-related protein 2 = Actin-related protein 2 (Homo sapiens, UniProt P61160)
[2] = molecular target: Serine/threonine-protein kinase MRCK beta (Homo sapiens, UniProt Q9Y5S2)
TGF-beta receptor type-1 = molecular target: T1, TGF-beta receptor type-1 (Homo sapiens, UniProt P36897)
T1 sequence (P36897 whole entry): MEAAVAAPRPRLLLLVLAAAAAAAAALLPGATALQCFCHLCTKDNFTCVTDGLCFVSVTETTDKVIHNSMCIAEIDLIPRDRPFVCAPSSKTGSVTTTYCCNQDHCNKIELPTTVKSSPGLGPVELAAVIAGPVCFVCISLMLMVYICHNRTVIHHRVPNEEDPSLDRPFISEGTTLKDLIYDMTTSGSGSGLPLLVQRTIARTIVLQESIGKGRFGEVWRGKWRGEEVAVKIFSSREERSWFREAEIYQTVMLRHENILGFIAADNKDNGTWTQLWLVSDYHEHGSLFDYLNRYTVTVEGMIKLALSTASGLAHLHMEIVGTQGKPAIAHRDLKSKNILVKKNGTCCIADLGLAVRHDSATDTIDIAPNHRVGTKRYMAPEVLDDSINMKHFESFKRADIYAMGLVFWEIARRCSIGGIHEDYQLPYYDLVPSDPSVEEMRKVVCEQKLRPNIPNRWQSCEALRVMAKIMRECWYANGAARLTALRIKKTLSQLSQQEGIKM

[3] = molecular target: T2, Serine/threonine-protein kinase Nek3 (Homo sapiens, UniProt P51956)
T2 sequence (P51956 whole entry): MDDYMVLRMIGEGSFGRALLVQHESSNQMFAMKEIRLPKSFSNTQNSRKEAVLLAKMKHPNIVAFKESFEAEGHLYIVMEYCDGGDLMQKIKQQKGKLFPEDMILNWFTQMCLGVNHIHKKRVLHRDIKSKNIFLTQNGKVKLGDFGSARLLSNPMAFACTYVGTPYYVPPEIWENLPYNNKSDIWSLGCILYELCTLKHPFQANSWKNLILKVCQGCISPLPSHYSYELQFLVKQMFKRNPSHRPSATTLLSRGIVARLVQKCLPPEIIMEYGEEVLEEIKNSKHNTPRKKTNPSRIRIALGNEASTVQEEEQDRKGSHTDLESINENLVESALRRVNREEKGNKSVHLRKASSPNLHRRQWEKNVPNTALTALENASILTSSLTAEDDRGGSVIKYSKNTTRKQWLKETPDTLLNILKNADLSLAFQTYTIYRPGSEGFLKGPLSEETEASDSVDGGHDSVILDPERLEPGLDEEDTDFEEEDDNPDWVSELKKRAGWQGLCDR

[4] = molecular target: Tyrosine-protein kinase Lyn (Homo sapiens, UniProt P07948)
[5] = molecular target: T3, Serine/threonine-protein kinase PLK4 (Homo sapiens, UniProt O00444)
T3 sequence (O00444 whole entry): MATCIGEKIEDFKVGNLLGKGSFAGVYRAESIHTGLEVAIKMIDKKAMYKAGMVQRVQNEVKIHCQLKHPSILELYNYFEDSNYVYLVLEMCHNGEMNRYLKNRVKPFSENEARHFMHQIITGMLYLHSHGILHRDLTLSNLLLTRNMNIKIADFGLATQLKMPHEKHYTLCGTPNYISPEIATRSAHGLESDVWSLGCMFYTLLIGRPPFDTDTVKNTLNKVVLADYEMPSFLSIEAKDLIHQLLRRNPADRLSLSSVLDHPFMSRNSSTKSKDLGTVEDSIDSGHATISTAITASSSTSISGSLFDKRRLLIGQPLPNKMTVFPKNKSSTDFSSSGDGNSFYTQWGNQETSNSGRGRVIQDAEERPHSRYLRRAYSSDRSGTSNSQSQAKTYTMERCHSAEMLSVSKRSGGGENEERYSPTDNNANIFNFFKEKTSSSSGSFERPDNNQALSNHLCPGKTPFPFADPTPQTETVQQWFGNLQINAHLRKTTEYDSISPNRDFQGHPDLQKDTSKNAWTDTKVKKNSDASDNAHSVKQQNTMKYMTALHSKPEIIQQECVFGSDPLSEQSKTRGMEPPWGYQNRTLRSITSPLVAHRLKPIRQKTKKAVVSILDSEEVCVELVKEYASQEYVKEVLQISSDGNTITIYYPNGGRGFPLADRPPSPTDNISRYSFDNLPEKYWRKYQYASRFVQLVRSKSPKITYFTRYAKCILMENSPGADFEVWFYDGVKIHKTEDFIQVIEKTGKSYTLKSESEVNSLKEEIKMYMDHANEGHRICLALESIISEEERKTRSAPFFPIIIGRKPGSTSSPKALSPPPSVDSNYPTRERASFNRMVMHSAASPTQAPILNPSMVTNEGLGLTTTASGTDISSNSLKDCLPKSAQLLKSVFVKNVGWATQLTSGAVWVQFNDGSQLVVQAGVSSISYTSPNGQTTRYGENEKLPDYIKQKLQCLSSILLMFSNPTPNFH

[6] = molecular target: Calcium/calmodulin-dependent protein kinase kinase 2 (Homo sapiens, UniProt Q96RR4)
Myosin-14 = Myosin-14 (Homo sapiens, UniProt Q7Z406)
[7] = molecular target: Epidermal growth factor receptor (Homo sapiens, UniProt P00533)
Activin receptor type-1 = molecular target: T4, Activin receptor type-1 (Homo sapiens, UniProt Q04771)
T4 sequence (Q04771 whole entry): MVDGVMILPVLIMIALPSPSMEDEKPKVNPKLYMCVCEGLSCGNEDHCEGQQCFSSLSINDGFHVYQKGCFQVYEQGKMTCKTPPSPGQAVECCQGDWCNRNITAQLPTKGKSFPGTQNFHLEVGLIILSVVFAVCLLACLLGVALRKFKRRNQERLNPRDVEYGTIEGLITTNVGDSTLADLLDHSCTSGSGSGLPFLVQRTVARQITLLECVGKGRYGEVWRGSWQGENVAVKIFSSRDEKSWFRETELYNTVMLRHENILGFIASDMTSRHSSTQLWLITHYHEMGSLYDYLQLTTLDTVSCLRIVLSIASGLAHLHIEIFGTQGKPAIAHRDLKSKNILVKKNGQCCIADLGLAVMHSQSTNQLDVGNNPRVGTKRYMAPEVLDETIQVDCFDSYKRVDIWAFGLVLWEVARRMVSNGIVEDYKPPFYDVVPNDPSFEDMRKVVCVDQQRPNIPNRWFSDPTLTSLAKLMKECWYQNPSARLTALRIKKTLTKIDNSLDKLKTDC
Also: in the data inactive means no Kd found up to 30 µM.

Tyrosine-protein kinase Lyn, sequence (P07948 whole entry): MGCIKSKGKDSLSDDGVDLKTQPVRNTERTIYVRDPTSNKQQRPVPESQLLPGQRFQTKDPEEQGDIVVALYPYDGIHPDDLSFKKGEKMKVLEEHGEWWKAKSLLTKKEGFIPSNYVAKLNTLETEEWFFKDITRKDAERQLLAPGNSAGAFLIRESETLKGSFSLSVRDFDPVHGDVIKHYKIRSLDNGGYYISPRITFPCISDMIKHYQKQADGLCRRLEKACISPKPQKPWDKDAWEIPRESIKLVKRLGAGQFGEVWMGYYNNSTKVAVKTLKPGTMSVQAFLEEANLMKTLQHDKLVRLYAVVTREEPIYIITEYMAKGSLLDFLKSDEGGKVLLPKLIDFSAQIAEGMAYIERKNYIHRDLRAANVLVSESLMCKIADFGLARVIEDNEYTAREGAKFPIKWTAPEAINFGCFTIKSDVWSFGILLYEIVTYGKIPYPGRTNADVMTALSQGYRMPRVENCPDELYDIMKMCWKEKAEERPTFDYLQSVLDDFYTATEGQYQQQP
Mitogen-activated protein kinase 8, sequence (P45983 whole entry): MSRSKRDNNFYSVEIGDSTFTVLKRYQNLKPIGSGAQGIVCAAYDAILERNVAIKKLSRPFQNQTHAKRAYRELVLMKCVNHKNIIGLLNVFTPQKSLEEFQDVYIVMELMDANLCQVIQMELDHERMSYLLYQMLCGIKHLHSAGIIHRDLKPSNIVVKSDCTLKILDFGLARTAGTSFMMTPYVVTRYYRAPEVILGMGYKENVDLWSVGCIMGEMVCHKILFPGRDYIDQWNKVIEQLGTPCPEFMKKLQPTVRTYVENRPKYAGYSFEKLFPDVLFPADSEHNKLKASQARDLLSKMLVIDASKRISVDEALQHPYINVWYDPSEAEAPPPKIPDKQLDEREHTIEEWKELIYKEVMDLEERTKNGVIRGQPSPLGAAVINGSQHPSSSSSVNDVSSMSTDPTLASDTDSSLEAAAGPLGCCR
Myosin-14, sequence (Q7Z406 whole entry): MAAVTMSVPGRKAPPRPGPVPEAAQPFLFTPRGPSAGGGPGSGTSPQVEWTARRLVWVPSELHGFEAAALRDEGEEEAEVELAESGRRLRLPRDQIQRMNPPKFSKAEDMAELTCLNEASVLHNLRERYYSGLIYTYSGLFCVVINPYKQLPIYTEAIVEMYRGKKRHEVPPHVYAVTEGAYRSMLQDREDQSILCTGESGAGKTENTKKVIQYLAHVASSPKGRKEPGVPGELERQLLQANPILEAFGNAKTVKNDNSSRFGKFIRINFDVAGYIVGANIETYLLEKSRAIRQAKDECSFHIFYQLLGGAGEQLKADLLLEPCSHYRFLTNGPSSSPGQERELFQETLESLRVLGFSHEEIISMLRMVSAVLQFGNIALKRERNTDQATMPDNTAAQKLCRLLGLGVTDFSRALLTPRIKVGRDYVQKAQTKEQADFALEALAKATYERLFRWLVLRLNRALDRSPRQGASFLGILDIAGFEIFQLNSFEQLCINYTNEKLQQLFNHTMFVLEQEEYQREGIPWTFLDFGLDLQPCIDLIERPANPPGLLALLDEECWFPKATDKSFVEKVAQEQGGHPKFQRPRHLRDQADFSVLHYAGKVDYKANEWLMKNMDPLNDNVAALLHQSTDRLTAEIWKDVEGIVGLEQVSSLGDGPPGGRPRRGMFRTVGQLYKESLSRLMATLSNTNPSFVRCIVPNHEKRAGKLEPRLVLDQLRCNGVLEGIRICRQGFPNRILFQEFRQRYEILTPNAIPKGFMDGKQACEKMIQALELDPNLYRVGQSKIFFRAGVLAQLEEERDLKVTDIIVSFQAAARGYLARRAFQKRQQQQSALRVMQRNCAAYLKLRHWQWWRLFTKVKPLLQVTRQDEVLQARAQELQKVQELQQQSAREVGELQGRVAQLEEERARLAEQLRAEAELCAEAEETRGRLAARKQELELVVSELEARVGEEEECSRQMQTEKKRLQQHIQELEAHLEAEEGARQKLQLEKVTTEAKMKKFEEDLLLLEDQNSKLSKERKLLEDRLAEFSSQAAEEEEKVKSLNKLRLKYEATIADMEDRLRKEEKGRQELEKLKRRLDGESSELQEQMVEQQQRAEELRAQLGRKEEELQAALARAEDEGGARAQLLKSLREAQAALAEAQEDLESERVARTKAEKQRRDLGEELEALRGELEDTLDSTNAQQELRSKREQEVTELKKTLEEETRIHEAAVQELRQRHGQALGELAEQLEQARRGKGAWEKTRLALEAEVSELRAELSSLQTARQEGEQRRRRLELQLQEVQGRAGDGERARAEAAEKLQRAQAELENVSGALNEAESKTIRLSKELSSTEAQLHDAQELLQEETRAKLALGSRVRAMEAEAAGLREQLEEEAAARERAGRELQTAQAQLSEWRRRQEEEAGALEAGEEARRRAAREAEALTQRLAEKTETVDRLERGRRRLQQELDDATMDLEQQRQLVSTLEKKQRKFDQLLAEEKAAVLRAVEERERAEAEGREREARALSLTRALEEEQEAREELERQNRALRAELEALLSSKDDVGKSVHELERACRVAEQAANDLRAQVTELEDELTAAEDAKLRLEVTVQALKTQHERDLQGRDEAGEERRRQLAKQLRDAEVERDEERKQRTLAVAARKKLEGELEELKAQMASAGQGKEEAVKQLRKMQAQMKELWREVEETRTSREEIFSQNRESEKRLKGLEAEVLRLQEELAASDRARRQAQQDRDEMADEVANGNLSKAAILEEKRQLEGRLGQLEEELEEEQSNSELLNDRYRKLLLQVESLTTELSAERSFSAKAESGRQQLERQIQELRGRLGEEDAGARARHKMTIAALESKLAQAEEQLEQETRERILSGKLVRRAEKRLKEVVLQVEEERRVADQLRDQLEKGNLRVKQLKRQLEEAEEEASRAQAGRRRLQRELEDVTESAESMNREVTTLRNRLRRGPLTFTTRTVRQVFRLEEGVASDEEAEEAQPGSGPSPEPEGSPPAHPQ
Epidermal growth factor receptor, sequence (P00533 whole entry): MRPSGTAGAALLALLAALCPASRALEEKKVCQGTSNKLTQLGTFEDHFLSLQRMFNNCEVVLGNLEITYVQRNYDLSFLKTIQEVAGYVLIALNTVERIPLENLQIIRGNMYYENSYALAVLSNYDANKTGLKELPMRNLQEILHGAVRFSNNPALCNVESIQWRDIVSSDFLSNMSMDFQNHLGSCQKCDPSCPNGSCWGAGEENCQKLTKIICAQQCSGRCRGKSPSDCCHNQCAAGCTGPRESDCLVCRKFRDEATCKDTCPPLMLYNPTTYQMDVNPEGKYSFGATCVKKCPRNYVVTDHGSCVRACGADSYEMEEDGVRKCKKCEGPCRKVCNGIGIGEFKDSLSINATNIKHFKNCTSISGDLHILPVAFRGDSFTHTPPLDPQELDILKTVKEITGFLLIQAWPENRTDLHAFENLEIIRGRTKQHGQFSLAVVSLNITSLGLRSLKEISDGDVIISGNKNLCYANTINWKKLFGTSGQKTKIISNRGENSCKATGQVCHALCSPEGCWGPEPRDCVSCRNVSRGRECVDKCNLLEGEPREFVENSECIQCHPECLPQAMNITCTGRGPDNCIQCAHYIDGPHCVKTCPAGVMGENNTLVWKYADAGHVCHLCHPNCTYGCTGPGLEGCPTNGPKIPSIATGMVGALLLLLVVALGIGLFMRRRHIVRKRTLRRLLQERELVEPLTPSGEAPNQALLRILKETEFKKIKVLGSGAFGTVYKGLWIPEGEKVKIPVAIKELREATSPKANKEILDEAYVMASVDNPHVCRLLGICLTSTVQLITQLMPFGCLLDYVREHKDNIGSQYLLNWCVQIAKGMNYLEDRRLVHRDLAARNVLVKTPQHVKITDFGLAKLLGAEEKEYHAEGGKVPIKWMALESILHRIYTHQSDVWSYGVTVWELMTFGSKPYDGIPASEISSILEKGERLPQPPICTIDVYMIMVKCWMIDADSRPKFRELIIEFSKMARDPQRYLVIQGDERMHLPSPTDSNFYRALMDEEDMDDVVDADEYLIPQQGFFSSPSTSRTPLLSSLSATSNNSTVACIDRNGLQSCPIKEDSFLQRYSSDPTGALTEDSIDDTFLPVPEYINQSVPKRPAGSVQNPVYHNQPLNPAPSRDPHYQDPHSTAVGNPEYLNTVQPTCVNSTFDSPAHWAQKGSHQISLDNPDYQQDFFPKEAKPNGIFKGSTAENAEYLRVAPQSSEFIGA
Calcium/calmodulin-dependent protein kinase kinase 2, sequence (Q96RR4 whole entry): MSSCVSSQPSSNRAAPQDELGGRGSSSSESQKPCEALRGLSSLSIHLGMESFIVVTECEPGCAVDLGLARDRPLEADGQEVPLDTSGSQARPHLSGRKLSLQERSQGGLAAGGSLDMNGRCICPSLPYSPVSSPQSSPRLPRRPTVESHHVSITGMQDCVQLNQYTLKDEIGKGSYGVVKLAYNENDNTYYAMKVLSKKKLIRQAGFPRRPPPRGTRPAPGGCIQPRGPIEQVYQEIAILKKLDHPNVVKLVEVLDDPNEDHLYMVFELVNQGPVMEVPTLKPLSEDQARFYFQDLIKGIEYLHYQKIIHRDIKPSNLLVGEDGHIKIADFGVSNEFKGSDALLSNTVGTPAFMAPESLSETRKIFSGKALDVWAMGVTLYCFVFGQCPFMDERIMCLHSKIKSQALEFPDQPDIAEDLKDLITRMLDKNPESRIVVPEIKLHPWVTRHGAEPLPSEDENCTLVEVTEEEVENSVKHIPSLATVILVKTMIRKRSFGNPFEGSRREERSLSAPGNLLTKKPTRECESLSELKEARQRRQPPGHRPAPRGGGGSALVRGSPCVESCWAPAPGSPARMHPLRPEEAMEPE

| Kd [1] | Kd (Actin-related protein 2) | Kd [2] | Kd (TGF-beta receptor type-1) | Kd [3] | Kd [4] | Kd [5] | Kd [6] | Kd (Myosin-14) | Kd [7] | Kd (Activin receptor type-1) | Compound |
| --- | --- | --- | --- | --- | --- | --- | --- | --- | --- | --- | --- |
| > 30 µM (inactive) | > 30 µM (inactive) | > 30 µM (inactive) | 3.32 µM (active) | > 30 µM (inactive) | 1.13 µM (active) | > 30 µM (inactive) | > 30 µM (inactive) | > 30 µM (inactive) | 0.038 µM (active) | > 30 µM (inactive) | COc1cc2c(Nc3ccc(Cl)c(Cl)c3F)ncnc2cc1OC[C@@H]1C[C@@H]2CN(C)C[C@@H]2C1 [TESEVATINIB] |
| > 30 µM (inactive) | > 30 µM (inactive) | > 30 µM (inactive) | > 30 µM (inactive) | > 30 µM (inactive) | > 30 µM (inactive) | > 30 µM (inactive) | > 30 µM (inactive) | > 30 µM (inactive) | > 30 µM (inactive) | > 30 µM (inactive) | O=C(Cc1ccc(-c2ccc(OCCN3CCOCC3)cc2)cn1)NCc1ccccc1 [TIRBANIBULIN] |
| > 30 µM (inactive) | > 30 µM (inactive) | > 30 µM (inactive) | > 30 µM (inactive) | > 30 µM (inactive) | > 30 µM (inactive) | > 30 µM (inactive) | > 30 µM (inactive) | > 30 µM (inactive) | > 30 µM (inactive) | > 30 µM (inactive) | O=C1NC(=O)[C@@H](c2cn3c4c(cccc24)CCC3)[C@@H]1c1c[nH]c2ccccc12 [TIVANTINIB] |
| 1.46 µM (active) | > 30 µM (inactive) | 46.9 µM | > 30 µM (inactive) | > 30 µM (inactive) | > 30 µM (inactive) | > 30 µM (inactive) | > 30 µM (inactive) | > 30 µM (inactive) | 79.9 µM | > 30 µM (inactive) | CN1C/C=C/CCOc2cccc(c2)-c2ccnc(n2)Nc2cccc(c2)C1 [ZOTIRACICLIB] |

The remaining lines, values behind:

| Compound | Kd [1] | Kd (Actin-related protein 2) | Kd [2] | Kd (TGF-beta receptor type-1) | Kd [3] | Kd [4] | Kd [5] | Kd [6] | Kd (Myosin-14) | Kd [7] | Kd (Activin receptor type-1) |
| --- | --- | --- | --- | --- | --- | --- | --- | --- | --- | --- | --- |
| CO[C@H]1C[C@@H]2CC[C@@H](C)[C@@](O)(O2)C(=O)C(=O)N2CCCC[C@H]2C(=O)O[C@H]([C@H](C)C[C@@H]2CC[C@@H](O)[C@H](OC)C2)CC(=O)[C@H](C)/C=C(\C)[C@@H](O)[C@@H](OC)C(=O)[C@H](C)C[C@H](C)/C=C/C=C/C=C/1C [SIROLIMUS] | > 30 µM (inactive) | > 30 µM (inactive) | > 30 µM (inactive) | > 30 µM (inactive) | > 30 µM (inactive) | > 30 µM (inactive) | > 30 µM (inactive) | > 30 µM (inactive) | > 30 µM (inactive) | > 30 µM (inactive) | > 30 µM (inactive) |
| CCS(=O)(=O)c1cccc(-c2cc(C(=O)NC3CCN(C)CC3)c(C)c3[nH]c4ncc(C)cc4c23)c1 [TAK-901] | > 30 µM (inactive) | > 30 µM (inactive) | > 30 µM (inactive) | 0.197 µM (active) | > 30 µM (inactive) | 0.357 µM (active) | 0.041 µM (active) | > 30 µM (inactive) | > 30 µM (inactive) | 1.47 µM (active) | 0.249 µM (active) |
| CO[C@H]1C[C@@H]2CC[C@@H](C)[C@@](O)(O2)C(=O)C(=O)N2CCCC[C@H]2C(=O)O[C@H]([C@H](C)C[C@@H]2CC[C@@H](OC(=O)C(C)(CO)CO)[C@H](OC)C2)CC(=O)[C@H](C)/C=C(\C)[C@@H](O)[C@@H](OC)C(=O)[C@H](C)C[C@H](C)/C=C/C=C/C=C/1C [TEMSIROLIMUS] | > 30 µM (inactive) | > 30 µM (inactive) | > 30 µM (inactive) | > 30 µM (inactive) | > 30 µM (inactive) | > 30 µM (inactive) | > 30 µM (inactive) | > 30 µM (inactive) | > 30 µM (inactive) | > 30 µM (inactive) | > 30 µM (inactive) |
| C[C@@H](NC(=O)c1ncnc(N)c1Cl)c1ncc(C(=O)Nc2cc(C(F)(F)F)c(Cl)cn2)s1 [TOVORAFENIB] | > 30 µM (inactive) | > 30 µM (inactive) | > 30 µM (inactive) | > 30 µM (inactive) | > 30 µM (inactive) | > 30 µM (inactive) | > 30 µM (inactive) | > 30 µM (inactive) | > 30 µM (inactive) | > 30 µM (inactive) | > 30 µM (inactive) |
| Cc1cc(Nc2ncnc3ccc(NC4=NC(C)(C)CO4)cc23)ccc1Oc1ccn2ncnc2c1 [TUCATINIB] | > 30 µM (inactive) | > 30 µM (inactive) | > 30 µM (inactive) | > 30 µM (inactive) | > 30 µM (inactive) | > 30 µM (inactive) | > 30 µM (inactive) | > 30 µM (inactive) | 0.188 µM | 2.53 µM (active) | > 30 µM (inactive) |
| C[C@@H](N)c1ccc(C(=O)Nc2ccnc3[nH]ccc23)cc1 [Y-39983] | > 30 µM (inactive) | > 30 µM (inactive) | 0.034 µM (active) | > 30 µM (inactive) | > 30 µM (inactive) | > 30 µM (inactive) | > 30 µM (inactive) | > 30 µM (inactive) | > 30 µM (inactive) | > 30 µM (inactive) | > 30 µM (inactive) |
